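The compound was tested at five concentrations on cells cultured in 96-well plates, with a 48-hour exposure period. Here, GI50 denotes the concentration required for 50% inhibition of growth.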 Active and inactive are the calls of the source. No stated cut-off is given here; in the data, active = GI50 up to about 1.1 µM and inactive = higher.
What was measured:
Assay in all cases: DTP human tumour cell line panel, 48 h
A549 = tested on: A549
HCT-116 = tested on: HCT-116
OVCAR-8 = tested on: OVCAR-8
NCI-H226 = tested on: NCI-H226
HCT-15 = tested on: HCT-15
OVCAR-3 = tested on: OVCAR-3
CAKI-1 = tested on: CAKI-1
CCRF-CEM = tested on: CCRF-CEM
SF-539 = tested on: SF-539
SF-268 = tested on: SF-268
M14 = tested on: M14
MCF7 = tested on: MCF7
NCI-H522 = tested on: NCI-H522
RXF 393 = tested on: RXF 393
SNB-19 = tested on: SNB-19
SK-MEL-5 = tested on: SK-MEL-5
Hs-578T = tested on: Hs-578T
ACHN = tested on: ACHN
SW-620 = tested on: SW-620
TK-10 = tested on: TK-10
RPMI-8226 = tested on: RPMI-8226
LOX IMVI = tested on: LOX IMVI
KM12 = tested on: KM12
SNB-75 = tested on: SNB-75
COLO 205 = tested on: COLO 205
HT-29 = tested on: HT-29
T47D = tested on: T47D
U-251 = tested on: U-251
DU-145 = tested on: DU-145
MDA-MB-435 = tested on: MDA-MB-435
EKVX = tested on: EKVX
HOP-92 = tested on: HOP-92
Malme-3M = tested on: Malme-3M
MDA-N = tested on: MDA-N
NCI-H23 = tested on: NCI-H23
HCC 2998 = tested on: HCC 2998
A498 = tested on: A498
SF-295 = tested on: SF-295
PC-3 = tested on: PC-3
UO-31 = tested on: UO-31
K562 = tested on: K562
MOLT-4 = tested on: MOLT-4
HOP-62 = tested on: HOP-62
UACC-62 = tested on: UACC-62
MDA-MB-231 = tested on: MDA-MB-231
NCI/ADR-RES = tested on: NCI/ADR-RES
BT-549 = tested on: BT-549
OVCAR-4 = tested on: OVCAR-4
786-0 = tested on: 786-0
SK-MEL-2 = tested on: SK-MEL-2
UACC-257 = tested on: UACC-257
SN12C = tested on: SN12C
SK-OV-3 = tested on: SK-OV-3
SK-MEL-28 = tested on: SK-MEL-28
NCI-H460 = tested on: NCI-H460
HL-60 = tested on: HL-60
OVCAR-5 = tested on: OVCAR-5

`N#Cc1c(Cl)c2cc([N+](=O)[O-])ccc2n2c1nc1ccccc12` was tested, and the GI50 (A549) was 35.8 µM (inactive), the GI50 (HCT-116) was 3.17 µM (inactive) and the GI50 (OVCAR-8) was 3.21 µM (inactive). The GI50 (NCI-H226) was 10.6 µM (inactive), the GI50 (HCT-15) was 0.933 µM and the GI50 (OVCAR-3) was 6.76 µM (inactive). For the same compound, the GI50 (CAKI-1) was 2.14 µM (inactive), the GI50 (CCRF-CEM) was 0.57 µM (active) and the GI50 (SF-539) was 2.15 µM (inactive). For the same compound, the GI50 (SF-268) was 5.71 µM (inactive), the GI50 (M14) was 1.99 µM (inactive) and the GI50 (MCF7) was 1.17 µM (inactive). For the same compound, the GI50 (NCI-H522) was 2.54 µM (inactive), the GI50 (RXF 393) was 2.38 µM (inactive) and the GI50 (SNB-19) was 13.6 µM (inactive). For the same compound, the GI50 (SK-MEL-5) was 22.6 µM (inactive), the GI50 (Hs-578T) was 7.69 µM (inactive) and the GI50 (ACHN) was 4.29 µM (inactive). The GI50 (SW-620) was 2.26 µM (inactive), the GI50 (TK-10) was 3.81 µM (inactive) and the GI50 (RPMI-8226) was 3.94 µM (inactive). For the same compound, the GI50 (LOX IMVI) was 1.87 µM (inactive), the GI50 (KM12) was 9.91 µM (inactive) and the GI50 (SNB-75) was 8.81 µM (inactive). For the same compound, the GI50 (COLO 205) was 2.21 µM (inactive), the GI50 (HT-29) was 4.46 µM (inactive) and the GI50 (T47D) was 1.79 µM (inactive). For the same compound, the GI50 (U-251) was 7.57 µM (inactive), the GI50 (DU-145) was 3.5 µM (inactive) and the GI50 (MDA-MB-435) was 2.35 µM (inactive). The GI50 (EKVX) was 15.8 µM (inactive), the GI50 (HOP-92) was 2.77 µM (inactive) and the GI50 (Malme-3M) was 6.85 µM (inactive). The GI50 (MDA-N) was 7.19 µM (inactive), the GI50 (NCI-H23) was 9.98 µM (inactive) and the GI50 (HCC 2998) was 7.53 µM (inactive). The GI50 (A498) was 25.6 µM (inactive), the GI50 (SF-295) was 26.8 µM (inactive) and the GI50 (PC-3) was 5.46 µM (inactive). The GI50 (UO-31) was 2.58 µM (inactive), the GI50 (K562) was 1.85 µM (inactive) and the GI50 (MOLT-4) was 0.8 µM (active). The GI50 (HOP-62) was 18.2 µM (inactive), the GI50 (UACC-62) was 12 µM (inactive) and the GI50 (MDA-MB-231) was 0.492 µM (active). For the same compound, the GI50 (NCI/ADR-RES) was 5.07 µM (inactive), the GI50 (BT-549) was 19.5 µM (inactive) and the GI50 (OVCAR-4) was 2.15 µM (inactive). The GI50 (786-0) was 2.01 µM (inactive), the GI50 (SK-MEL-2) was 15.5 µM (inactive) and the GI50 (UACC-257) was 20.6 µM (inactive). For the same compound, the GI50 (SN12C) was 4.44 µM (inactive), the GI50 (SK-OV-3) was 23.3 µM (inactive) and the GI50 (SK-MEL-28) was 6.87 µM (inactive). For the same compound, the GI50 (NCI-H460) was 14.6 µM (inactive), the GI50 (HL-60) was 0.172 µM (active) and the GI50 (OVCAR-5) was 4.05 µM (inactive).

Source: ChEMBL document CHEMBL1201862, “PubChem BioAssay data set” (2004)
